Literature values, collected in patent US9597306B1, “Fumarate compounds, pharmaceutical compositions thereof, and methods of use” (priority 2015, dated 2017).

For `COC(=O)/C=C/C(=O)OC` [DMF, dimethylfumarate], which aqueous solubility is on record?
The aqueous solubility was “poor”.
